How the values were obtained:
HCT-15 = assay: Cytotoxicity against human HCT15 cells after 48 hrs by sulforhodamine B assay; assay type: functional; conditions: HCT-15, 48 h
HCT-116 [1] = assay: Cytotoxicity against human HCT116 cells after 48 hrs by sulforhodamine B assay; assay type: functional; conditions: HCT-116, 48 h
COLO 205 [2] = assay: Cytotoxicity against human COLO205 cells after 48 hrs by sulforhodamine B assay; assay type: functional; conditions: COLO 205, 48 h
A549 = assay: Cytotoxicity against human A549/ATCC cells after 48 hrs by sulforhodamine B assay; assay type: functional; conditions: A549, 48 h
SR = assay: Cytotoxicity against human SR cells after 48 hrs by sulforhodamine B assay; assay type: functional
RPMI-8226 [3] = assay: Cytotoxicity against human RPMI8226 cells after 48 hrs by sulforhodamine B assay; assay type: functional; conditions: RPMI-8226, 48 h
MOLT-4 [4] = assay: Cytotoxicity against human MOLT4 cells after 48 hrs by sulforhodamine B assay; assay type: functional; conditions: MOLT-4, 48 h
MCF7 [5] = assay: Cytotoxicity against human MCF7 cells at 10 uM after 48 hrs by sulforhodamine B assay relative to control; assay type: functional
PC-3 [6] = assay: Cytotoxicity against human PC3 cells at 10 uM after 48 hrs by sulforhodamine B assay relative to control; assay type: functional
UO-31 = assay: Cytotoxicity against human UO31 cells at 10 uM after 48 hrs by sulforhodamine B assay relative to control; assay type: functional
SN12C = assay: Cytotoxicity against human SN12C cells at 10 uM after 48 hrs by sulforhodamine B assay relative to control; assay type: functional
UACC-257 = assay: Cytotoxicity against human UACC257 cells at 10 uM after 48 hrs by sulforhodamine B assay relative to control; assay type: functional
SK-MEL-2 [7] = assay: Cytotoxicity against human SK-MEL-2 cells at 10 uM after 48 hrs by sulforhodamine B assay relative to control; assay type: functional
LOX IMVI = assay: Cytotoxicity against human LOXIMVI cells at 10 uM after 48 hrs by sulforhodamine B assay relative to control; assay type: functional
SF-295 = assay: Cytotoxicity against human SF295 cells at 10 uM after 48 hrs by sulforhodamine B assay relative to control; assay type: functional
SF-268 [8] = assay: Cytotoxicity against human SF268 cells at 10 uM after 48 hrs by sulforhodamine B assay relative to control; assay type: functional
HCT-116 [9] = assay: Cytotoxicity against human HCT116 cells at 10 uM after 48 hrs by sulforhodamine B assay relative to control; assay type: functional
HCC 2998 = assay: Cytotoxicity against human HCC2998 cells at 10 uM after 48 hrs by sulforhodamine B assay relative to control; assay type: functional
COLO 205 [10] = assay: Cytotoxicity against human COLO205 cells at 10 uM after 48 hrs by sulforhodamine B assay relative to control; assay type: functional
NCI-H460 = assay: Cytotoxicity against human NCI-H460 cells at 10 uM after 48 hrs by sulforhodamine B assay relative to control; assay type: functional
HOP-92 = assay: Cytotoxicity against human HOP92 cells at 10 uM after 48 hrs by sulforhodamine B assay relative to control; assay type: functional
HOP-62 = assay: Cytotoxicity against human HOP62 cells at 10 uM after 48 hrs by sulforhodamine B assay relative to control; assay type: functional
RPMI-8226 [11] = assay: Cytotoxicity against human RPMI8226 cells at 10 uM after 48 hrs by sulforhodamine B assay relative to control; assay type: functional
MOLT-4 [12] = assay: Cytotoxicity against human MOLT4 cells at 10 uM after 48 hrs by sulforhodamine B assay relative to control; assay type: functional
K562 = assay: Cytotoxicity against human K562 cells at 10 uM after 48 hrs by sulforhodamine B assay relative to control; assay type: functional
HL-60(TB) = assay: Cytotoxicity against human HL-60(TB) cells at 10 uM after 48 hrs by sulforhodamine B assay relative to control; assay type: functional
[13] = Cytotoxicity against human Hs 578T cells after 48 hrs by sulforhodamine B assay; assay type: functional
DU-145 = assay: Cytotoxicity against human DU145 cells after 48 hrs by sulforhodamine B assay; assay type: functional; conditions: DU-145, 48 h
MCF7 [14] = assay: Cytotoxicity against human MCF7 cells after 48 hrs by sulforhodamine B assay; assay type: functional; conditions: MCF7, 48 h
PC-3 [15] = assay: Cytotoxicity against human PC3 cells after 48 hrs by sulforhodamine B assay; assay type: functional, cell-based; conditions: PC-3, 48 h
RXF 393 = assay: Cytotoxicity against human RXF393 cells after 48 hrs by sulforhodamine B assay; assay type: functional; conditions: RXF 393, 48 h
A498 = assay: Cytotoxicity against human A498 cells after 48 hrs by sulforhodamine B assay; assay type: functional; conditions: A498, 48 h
786-0 = assay: Cytotoxicity against human 786-0 cells after 48 hrs by sulforhodamine B assay; assay type: functional; conditions: 786-0, 48 h
OVCAR-5 = assay: Cytotoxicity against human OVCAR5 cells after 48 hrs by sulforhodamine B assay; assay type: functional; conditions: OVCAR-5, 48 h
SK-MEL-2 [16] = assay: Cytotoxicity against human SK-MEL-2 cells after 48 hrs by sulforhodamine B assay; assay type: functional; conditions: SK-MEL-2, 48 h
MDA-MB-435 = assay: Cytotoxicity against human MDA-MB-435 cells after 48 hrs by sulforhodamine B assay; assay type: functional; conditions: MDA-MB-435, 48 h
SNB-19 = assay: Cytotoxicity against human SNB19 cells after 48 hrs by sulforhodamine B assay; assay type: functional; conditions: SNB-19, 48 h
SF-268 [17] = assay: Cytotoxicity against human SF268 cells after 48 hrs by sulforhodamine B assay; assay type: functional; conditions: SF-268, 48 h
KM12 = assay: Cytotoxicity against human KM12 cells after 48 hrs by sulforhodamine B assay; assay type: functional; conditions: KM12, 48 h
[18] = read-out: LC50 (the source's name)

## CCCCNCC(=O)Nc1ccc2c(c1)C(=O)c1cc(NC(=O)CNCCCC)ccc1-2
HCT-15
  GI50: 1.26 µM
  TGI: 3.34 µM
HCT-15; [18]
  CC50: 8.89 µM
HCT-116 [1]
  GI50: 0.81 µM
  TGI: 2.18 µM
HCT-116 [1]; [18]
  CC50: 5.16 µM
COLO 205 [2]
  GI50: 1.27 µM
  TGI: 2.64 µM
COLO 205 [2]; [18]
  CC50: 5.48 µM
A549
  GI50: 1.53 µM
  TGI: 3.37 µM
A549; [18]
  CC50: 7.39 µM
SR
  GI50: 0.22 µM
  TGI: 0.53 µM
SR; [18]
  CC50: 3.44 µM
RPMI-8226 [3]
  GI50: 1.86 µM
  TGI: 4.9 µM
RPMI-8226 [3]; [18]
  CC50: 4.6 µM
MOLT-4 [4]
  GI50: 0.56 µM
  TGI: 2.29 µM
MOLT-4 [4]; [18]
  CC50: 7.26 µM
MCF7 [5]
  Activity: 10.48%
PC-3 [6]
  Activity: -4.48%
UO-31
  Activity: -42.01%
SN12C
  Activity: 67.76%
UACC-257
  Activity: -84.17%
SK-MEL-2 [7]
  Activity: -63.34%
LOX IMVI
  Activity: -78.38%
SF-295
  Activity: -26.11%
SF-268 [8]
  Activity: 38.37%
HCT-116 [9]
  Activity: -89.71%
HCC 2998
  Activity: -50.75%
COLO 205 [10]
  Activity: -86.41%
NCI-H460
  Activity: -27.51%
HOP-92
  Activity: 6.92%
HOP-62
  Activity: -5.44%
RPMI-8226 [11]
  Activity: -37.38%
MOLT-4 [12]
  Activity: -42.18%
K562
  Activity: -53.98%
HL-60(TB)
  Activity: -63.01%
[13]
  GI50: 2.63 µM
  TGI: 9.23 µM
[13]; [18]
  CC50: 70.9 µM
DU-145
  GI50: 1.43 µM
  TGI: 3.37 µM
DU-145; [18]
  CC50: 7.94 µM
MCF7 [14]
  GI50: 2.25 µM
  TGI: 8.79 µM
MCF7 [14]; [18]
  CC50: 4.4 µM
PC-3 [15]
  GI50: 1.72 µM
  IC50: 3.61 µM
  LC50 (concentration killing 50% of cells): 13.1 µM
  TGI: 4.34 µM
RXF 393
  GI50: 1.83 µM
  TGI: 3.52 µM
RXF 393; [18]
  CC50: 6.78 µM
A498
  GI50: 1.63 µM
  TGI: 5.36 µM
A498; [18]
  CC50: 25.1 µM
786-0
  GI50: 1.43 µM
  TGI: 2.82 µM
786-0; [18]
  CC50: 5.56 µM
OVCAR-5
  GI50: 3.06 µM
  TGI: 10.6 µM
OVCAR-5; [18]
  CC50: 34.5 µM
SK-MEL-2 [16]
  GI50: 1.76 µM
  TGI: 3.3 µM
SK-MEL-2 [16]; [18]
  CC50: 6.18 µM
MDA-MB-435
  GI50: 1.63 µM
  TGI: 3.4 µM
MDA-MB-435; [18]
  CC50: 7.1 µM
SNB-19
  GI50: 2.54 µM
  TGI: 8.94 µM
SNB-19; [18]
  CC50: 30.6 µM
SF-268 [17]
  GI50: 1.69 µM
  TGI: 3.97 µM
SF-268 [17]; [18]
  CC50: 9.33 µM
KM12
  GI50: 1.64 µM
  TGI: 3.38 µM
KM12; [18]
  CC50: 7 µM
